Data on 5 compounds can be found in US5126373A, “Composition for parenteral and oral nutrition” (priority 1987, dated 1992).

Series [1] concerns alloxan-diabetic rats. Conditions: cited from earlier work.
Series [2] is described as follows: Preliminary results with 1,3-pentanediol and its esters. Conditions: liver.
Series [3] has as its system mammalian cells. The settings on record: cited from earlier work.
Series [4] concerns [NADH]/[NAD^+ ]. Conditions: inhibition of gluconeogenesis and alcoholic hypoglycemia; cited from earlier work.
In series [5] the test system is ketone bodies (R-3-hydroxybutyrate+S-3-hydroxybutyrate+acetoacetate). In words: Total ketone body concentrations in pigs. Format: in vivo, pig. The protocol: (§1) The pigs were given equicaloric amount of either:
The total concentration of physiological and unphysiological ketone bodies (R-3-hydroxybutyrate+S-3-hydroxybutyrate+acetoacetate) never exceeded 0.8 mM in the animal receiving RS-butanediol by the continuous intravenous route. […] Therefore, there was no marked acidosis in any of the groups.

Series [6] can be described thus: Volume of distribution of butanediol. Format: in vivo. The text has this:
In other experiments, the volume of distribution of butanediol is equal to 2/3 of the body wt, i.e. total body water.

Series [7] can be described thus: Noted metabolism of esters compared with butanediol alone. Format: in vivo. Conditions: compared with physiological oxido-reduction ratio.
The test system of series [8] is mitochondrial [NADH]/[NAD^+ ]. The series is described as follows: Redox parameters in blood of pigs. Format: in vivo, pig. Conditions: reflects the mitochondrial [NADH]/[NAD^+ ].
Source text: as §1

Series [9] is described as follows: Blood glucose levels in unanesthetized young pigs. Format: in vivo, pig. The settings on record: intravenous infusion 3 h or intragastric bolus.
Source text: as §1

Series [10] in a line: RS-butanediol concentration in blood of pigs. Format: in vivo, pig.
Source text: as §1

For series [11] the following is noted: cited from earlier work.
In series [12] the test system is ethanol withdrawal syndrome. The settings on record: rats; cited from earlier work.

`C[C@H](O)CCO` [L-1,3-butanediol]: in series [1] (alloxan-diabetic rats), the blood glucose level entry was “useful in reducing the blood glucose level”.

Turning to `CCC(O)CCO` (racemic) [RS-1,3-pentanediol], the “gluconeogenic and ketogenic substrate” value in series [2] was “is a gluconeogenic and a ketogenic substrate”.

Regarding `C[C@H](O)CC(=O)O` [L-β-hydroxybutyrate], the “use by mammalian cells” value in series [3] is “very well used by mammalian cells”. For the same compound, the antidiabetic properties result in series [1] (test not stated) is “has demonstrated interesting antidiabetic properties”.

For `CCO` [ethanol], the redox shift result in series [4] was “an increase in [NADH]/[NAD^+ ]”.

On to `CC(O)CCO` (racemic) [RS-butanediol, 1,3-butanediol], for which the “total concentration of ketone bodies” value in series [5] (continuous intravenous infusion) is reported as no more than 0.8 mM. Besides, the “total ketone body concentration” value in series [5] (intragastric bolus) was “about 1.5 mM”. Also, the osmotic effect entry in [6] (butanediol liberated in blood from plasma esterases) is recorded as “does not exert any osmotic effect”. In addition, in series [6] (compared with a tracer of water), the “rate of distribution into total body water” value was “at the same rate as a tracer of water”. Moreover, the volume of distribution in series [6] (i.e. total body water) was 2/3. In series [7], the “3-hydroxybutyrate and acetoacetate ratio after metabolism in the liver” value is listed as “more reduced than physiological”. Further, in series [8], the “[R-3-hydroxybutyrate]/[acetoacetate] ratio” value is recorded as “increased”. Moreover, the “Glucose levels / hypoglycemic effect” value in [9] was “do not exert a hypoglycemic effect”. For the same compound, in [10] (after intragastric bolus), the “linear decrease of butanediol concentration in blood, time” value is 4 h. Besides, the concentration at 3 h in series [10] (pig, blood, constant intravenous infusion for 3 h, 25% of hourly caloric requirement, read-out: RS-butanediol (free butanediol) concentration) turned out to be 600 µM. The Cmax in series [10] (pig, blood, intragastric bolus, 15% of daily caloric requirements, read-out: concentration of butanediol in the blood, peak) was 25000 µM. In addition, in series [11] (diet containing 5%, humans), the adverse effect entry is on record as “no adverse effect” and the nitrogen sparing entry was “nitrogen was spared”. For the same compound, the “metabolism in the liver” value in series [11] (via alcohol and aldehyde dehydrogenase) is “metabolised in the liver to DL-3-hydroxybutyrate”. For the same compound, the “effect on ethanol withdrawal syndrome” value in [12] is given as “alleviates the ethanol withdrawal syndrome in rats”.
